Data from ChEMBL document CHEMBL1201861, “Genomics of Drug Sensitity in Cancer screening data, Wellcome Trust Sanger Institute”.

How the values were obtained:
Assay in all cases: cells
LS-513 = type: functional, cell-based, Homo sapiens; conditions: Homo sapiens, LS-513
Description: SANGER: Inhibition of human LS-513 cell growth in a cell viability assay.

RXF 393 = type: functional, cell-based, Homo sapiens; conditions: Homo sapiens, RXF 393
Description: SANGER: Inhibition of human RXF393 cell growth in a cell viability assay.

ES4 = type: functional, cell-based, Homo sapiens; conditions: Homo sapiens, ES4
Description: SANGER: Inhibition of human ES4 cell growth in a cell viability assay.

NCI-H747 = type: functional, cell-based, Homo sapiens; conditions: Homo sapiens, NCI-H747
Description: SANGER: Inhibition of human NCI-H747 cell growth in a cell viability assay.

NCI-H2126 = type: functional, cell-based, Homo sapiens; conditions: Homo sapiens, NCI-H2126
Description: SANGER: Inhibition of human NCI-H2126 cell growth in a cell viability assay.

COLO-800 = type: functional, cell-based, Homo sapiens; conditions: Homo sapiens, COLO-800
Description: SANGER: Inhibition of human COLO-800 cell growth in a cell viability assay.

NB10 = type: functional, cell-based, Homo sapiens; conditions: Homo sapiens, NB10
Description: SANGER: Inhibition of human NB10 cell growth in a cell viability assay.

SNU-5 = type: functional, cell-based, Homo sapiens; conditions: Homo sapiens, SNU-5
Description: SANGER: Inhibition of human NCI-SNU-5 cell growth in a cell viability assay.

Lu-65 = type: functional, cell-based, Homo sapiens; conditions: Homo sapiens, Lu-65
Description: SANGER: Inhibition of human LU-65 cell growth in a cell viability assay.

SNB-75 = type: functional, cell-based, Homo sapiens; conditions: Homo sapiens, SNB-75
Description: SANGER: Inhibition of human SNB75 cell growth in a cell viability assay.

JVM-2 = type: functional, cell-based, Homo sapiens; conditions: Homo sapiens, JVM-2
Description: SANGER: Inhibition of human JVM-2 cell growth in a cell viability assay.

CW-2 = type: functional, cell-based, Homo sapiens; conditions: Homo sapiens, CW-2
Description: SANGER: Inhibition of human CW-2 cell growth in a cell viability assay.

SCH = type: functional, cell-based, Homo sapiens; conditions: Homo sapiens, SCH
Description: SANGER: Inhibition of human SCH cell growth in a cell viability assay.

LB831-BLC = type: functional, cell-based, Homo sapiens; conditions: Homo sapiens, LB831-BLC
Description: SANGER: Inhibition of human LB831-BLC cell growth in a cell viability assay.

NCI-H1770 = type: functional, cell-based, Homo sapiens; conditions: Homo sapiens, NCI-H1770
Description: SANGER: Inhibition of human NCI-H1770 cell growth in a cell viability assay.

SK-LMS-1 = type: functional, cell-based, Homo sapiens; conditions: Homo sapiens, SK-LMS-1
Description: SANGER: Inhibition of human SK-LMS-1 cell growth in a cell viability assay.

TE-12 = type: functional, cell-based, Homo sapiens; conditions: Homo sapiens, TE-12
Description: SANGER: Inhibition of human TE-12 cell growth in a cell viability assay.

TE-10 = type: functional, cell-based, Homo sapiens; conditions: Homo sapiens, TE-10
Description: SANGER: Inhibition of human TE-10 cell growth in a cell viability assay.

TE-8 = type: functional, cell-based, Homo sapiens; conditions: Homo sapiens, TE-8
Description: SANGER: Inhibition of human TE-8 cell growth in a cell viability assay.

BB30-HNC = type: functional, cell-based, Homo sapiens; conditions: Homo sapiens, BB30-HNC
Description: SANGER: Inhibition of human BB30-HNC cell growth in a cell viability assay.

HCC1187 = type: functional, cell-based, Homo sapiens; conditions: Homo sapiens, HCC1187
Description: SANGER: Inhibition of human HCC1187 cell growth in a cell viability assay.

DOHH-2 = type: functional, cell-based, Homo sapiens; conditions: Homo sapiens, DOHH-2
Description: SANGER: Inhibition of human DOHH-2 cell growth in a cell viability assay.

TE-11 = type: functional, cell-based; conditions: Homo sapiens
Description: SANGER: Inhibition of human TE-11 cell growth in a cell viability assay.

EM-2 = type: functional, cell-based, Homo sapiens; conditions: Homo sapiens, EM-2
Description: SANGER: Inhibition of human EM-2 cell growth in a cell viability assay.

QIMR-WIL = type: functional, cell-based, Homo sapiens; conditions: Homo sapiens, QIMR-WIL
Description: SANGER: Inhibition of human QIMR-WIL cell growth in a cell viability assay.

NTERA-2-cl-D1 = type: functional, cell-based, Homo sapiens; conditions: Homo sapiens, NTERA-2-cl-D1
Description: SANGER: Inhibition of human NTERA-S-cl-D1 cell growth in a cell viability assay.

NCI-H23 = type: functional, cell-based, Homo sapiens; conditions: Homo sapiens, NCI-H23
Description: SANGER: Inhibition of human NCI-H23 cell growth in a cell viability assay.

KARPAS-299 = type: functional, cell-based, Homo sapiens; conditions: Homo sapiens, KARPAS-299
Description: SANGER: Inhibition of human KARPAS-299 cell growth in a cell viability assay.

ACN = type: functional, cell-based, Homo sapiens; conditions: Homo sapiens, ACN
Description: SANGER: Inhibition of human ACN cell growth in a cell viability assay.

ES6 = type: functional, cell-based; conditions: Homo sapiens
Description: SANGER: Inhibition of human ES6 cell growth in a cell viability assay.

HT-144 = type: functional, cell-based, Homo sapiens; conditions: Homo sapiens, HT-144
Description: SANGER: Inhibition of human HT-144 cell growth in a cell viability assay.

COLO-824 = type: functional, cell-based, Homo sapiens; conditions: Homo sapiens, COLO-824
Description: SANGER: Inhibition of human COLO-824 cell growth in a cell viability assay.

NCI-H82 = type: functional, cell-based, Homo sapiens; conditions: Homo sapiens, NCI-H82
Description: SANGER: Inhibition of human NCI-H82 cell growth in a cell viability assay.

TE-5 = type: functional, cell-based, Homo sapiens; conditions: Homo sapiens, TE-5
Description: SANGER: Inhibition of human TE-5 cell growth in a cell viability assay.

MC116 = type: functional, cell-based, Homo sapiens; conditions: Homo sapiens, MC116
Description: SANGER: Inhibition of human MC116 cell growth in a cell viability assay.

P30-OHK = type: functional, cell-based, Homo sapiens; conditions: Homo sapiens, P30-OHK
Description: SANGER: Inhibition of human P30-OHK cell growth in a cell viability assay.

MZ1-PC = type: functional, cell-based, Homo sapiens; conditions: Homo sapiens, MZ1-PC
Description: SANGER: Inhibition of human MZ1-PC cell growth in a cell viability assay.

A3-KAW = type: functional, cell-based, Homo sapiens; conditions: Homo sapiens, A3-KAW
Description: SANGER: Inhibition of human A3-KAW cell growth in a cell viability assay.

HCC2157 = type: functional, cell-based, Homo sapiens; conditions: Homo sapiens, HCC2157
Description: SANGER: Inhibition of human HCC2157 cell growth in a cell viability assay.

DU-4475 = type: functional, cell-based, Homo sapiens; conditions: Homo sapiens, DU-4475
Description: SANGER: Inhibition of human DU-4475 cell growth in a cell viability assay.

LS-123 = type: functional, cell-based, Homo sapiens; conditions: Homo sapiens, LS-123
Description: SANGER: Inhibition of human LS-123 cell growth in a cell viability assay.

SF-539 = type: functional, cell-based, Homo sapiens; conditions: Homo sapiens, SF-539
Description: SANGER: Inhibition of human SF539 cell growth in a cell viability assay.

HDLM-2 = type: functional, cell-based, Homo sapiens; conditions: Homo sapiens, HDLM-2
Description: SANGER: Inhibition of human HDLM-2 cell growth in a cell viability assay.

MOLT-4 = type: functional, cell-based, Homo sapiens; conditions: Homo sapiens, MOLT-4
Description: SANGER: Inhibition of human MOLT-4 cell growth in a cell viability assay.

GCIY = type: functional, cell-based, Homo sapiens; conditions: Homo sapiens, GCIY
Description: SANGER: Inhibition of human GCIY cell growth in a cell viability assay.

Calu-6 = type: functional, cell-based, Homo sapiens; conditions: Homo sapiens, Calu-6
Description: SANGER: Inhibition of human Calu-6 cell growth in a cell viability assay.

ES5 = type: functional, cell-based, Homo sapiens; conditions: Homo sapiens, ES5
Description: SANGER: Inhibition of human ES5 cell growth in a cell viability assay.

EKVX = type: functional, cell-based, Homo sapiens; conditions: Homo sapiens, EKVX
Description: SANGER: Inhibition of human EKVX cell growth in a cell viability assay.

SK-PN-DW = type: functional, cell-based, Homo sapiens; conditions: Homo sapiens, SK-PN-DW
Description: SANGER: Inhibition of human SK-PN-DW cell growth in a cell viability assay.

## COc1ccc(-c2cc3nccn3c(Nc3ncccc3C(N)=O)n2)cc1OC
LS-513
  IC50: > 8 µM
RXF 393
  IC50: 6.81 µM
ES4
  IC50: 1.24 µM
NCI-H747
  IC50: > 8 µM
NCI-H2126
  IC50: > 8 µM
COLO-800
  IC50: > 8 µM
NB10
  IC50: 5.3 µM
SNU-5
  IC50: > 8 µM
Lu-65
  IC50: 2.22 µM
SNB-75
  IC50: > 8 µM
JVM-2
  IC50: > 8 µM
CW-2
  IC50: > 8 µM
SCH
  IC50: > 8 µM
LB831-BLC
  IC50: 1.02 µM
NCI-H1770
  IC50: 2.61 µM
SK-LMS-1
  IC50: > 8 µM
TE-12
  IC50: 0.531 µM
TE-10
  IC50: 1.76 µM
TE-8
  IC50: 2.43 µM
BB30-HNC
  IC50: 2.82 µM
HCC1187
  IC50: > 8 µM
DOHH-2
  IC50: 2.03 µM
TE-11
  IC50: > 8 µM
EM-2
  IC50: > 8 µM
QIMR-WIL
  IC50: 0.582 µM
NTERA-2-cl-D1
  IC50: 1.96 µM
NCI-H23
  IC50: > 8 µM
KARPAS-299
  IC50: > 8 µM
ACN
  IC50: > 8 µM
ES6
  IC50: 1.24 µM
HT-144
  IC50: 3.72 µM
COLO-824
  IC50: > 8 µM
NCI-H82
  IC50: > 8 µM
TE-5
  IC50: 5.54 µM
MC116
  IC50: 2.51 µM
P30-OHK
  IC50: 0.427 µM
MZ1-PC
  IC50: 3.49 µM
A3-KAW
  IC50: 0.74 µM
HCC2157
  IC50: > 8 µM
DU-4475
  IC50: 2.17 µM
LS-123
  IC50: > 8 µM
SF-539
  IC50: > 8 µM
HDLM-2
  IC50: > 8 µM
MOLT-4
  IC50: 5.81 µM
GCIY
  IC50: > 8 µM
Calu-6
  IC50: 6.87 µM
ES5
  IC50: > 8 µM
EKVX
  IC50: > 8 µM
SK-PN-DW
  IC50: 5.37 µM

## OC[C@H](Cc1ccccc1)Nc1nc(Oc2ccc3c(c2)CCC3)nc2c1ncn2Cc1ccc(-c2ccccc2)cc1
LS-513
  IC50: > 10.2 µM
RXF 393
  IC50: > 10.2 µM
ES4
  IC50: 8.51 µM
NCI-H747
  IC50: > 10.2 µM
NCI-H2126
  IC50: > 10.2 µM
COLO-800
  IC50: > 10.2 µM
NB10
  IC50: > 10.2 µM
SNU-5
  IC50: > 10.2 µM
Lu-65
  IC50: > 10.2 µM
SNB-75
  IC50: > 10.2 µM
JVM-2
  IC50: > 10.2 µM
CW-2
  IC50: > 10.2 µM
SCH
  IC50: > 10.2 µM
LB831-BLC
  IC50: > 10.2 µM
NCI-H1770
  IC50: 8.9 µM
SK-LMS-1
  IC50: 2.94 µM
TE-12
  IC50: > 10.2 µM
TE-10
  IC50: 7.51 µM
TE-8
  IC50: 3.17 µM
BB30-HNC
  IC50: 3.92 µM
HCC1187
  IC50: > 10.2 µM
DOHH-2
  IC50: > 10.2 µM
TE-11
  IC50: > 10.2 µM
EM-2
  IC50: > 10.2 µM
QIMR-WIL
  IC50: 6.65 µM
NTERA-2-cl-D1
  IC50: > 10.2 µM
NCI-H23
  IC50: > 10.2 µM
KARPAS-299
  IC50: > 10.2 µM
ACN
  IC50: 6.01 µM
ES6
  IC50: > 10.2 µM
HT-144
  IC50: 8.54 µM
COLO-824
  IC50: > 10.2 µM
NCI-H82
  IC50: > 10.2 µM
TE-5
  IC50: > 10.2 µM
MC116
  IC50: > 10.2 µM
P30-OHK
  IC50: 3.56 µM
MZ1-PC
  IC50: 6.97 µM
A3-KAW
  IC50: 7.38 µM
HCC2157
  IC50: > 10.2 µM
DU-4475
  IC50: 1.63 µM
LS-123
  IC50: 9.49 µM
SF-539
  IC50: > 10.2 µM
HDLM-2
  IC50: > 10.2 µM
MOLT-4
  IC50: > 10.2 µM
GCIY
  IC50: > 10.2 µM
Calu-6
  IC50: > 10.2 µM
ES5
  IC50: > 10.2 µM
EKVX
  IC50: > 10.2 µM
SK-PN-DW
  IC50: 5.48 µM

## CCCCCCCCCCCC1=C(O)C(=O)C=C(O)C1=O [EMBELIN]
LS-513
  IC50: > 32 µM
RXF 393
  IC50: > 32 µM
ES4
  IC50: 4.52 µM
NCI-H747
  IC50: 14.3 µM
NCI-H2126
  IC50: 27.9 µM
COLO-800
  IC50: > 32 µM
NB10
  IC50: > 32 µM
SNU-5
  IC50: > 32 µM
Lu-65
  IC50: > 32 µM
SNB-75
  IC50: 17.4 µM
JVM-2
  IC50: > 32 µM
CW-2
  IC50: > 32 µM
SCH
  IC50: > 32 µM
LB831-BLC
  IC50: 12.6 µM
NCI-H1770
  IC50: > 32 µM
SK-LMS-1
  IC50: 5.64 µM
TE-12
  IC50: 14.4 µM
TE-10
  IC50: 13.3 µM
TE-8
  IC50: 11 µM
BB30-HNC
  IC50: 5.06 µM
HCC1187
  IC50: > 32 µM
DOHH-2
  IC50: 7.57 µM
TE-11
  IC50: > 32 µM
EM-2
  IC50: > 32 µM
QIMR-WIL
  IC50: 5.29 µM
NTERA-2-cl-D1
  IC50: 1.6 µM
NCI-H23
  IC50: > 32 µM
KARPAS-299
  IC50: > 32 µM
ACN
  IC50: 5.86 µM
ES6
  IC50: 9.55 µM
HT-144
  IC50: 8.74 µM
COLO-824
  IC50: > 32 µM
NCI-H82
  IC50: > 32 µM
TE-5
  IC50: 9.42 µM
MC116
  IC50: 2.82 µM
P30-OHK
  IC50: 6.13 µM
MZ1-PC
  IC50: 5.71 µM
A3-KAW
  IC50: 9.01 µM
HCC2157
  IC50: > 32 µM
DU-4475
  IC50: 13.2 µM
LS-123
  IC50: 9.42 µM
SF-539
  IC50: 15.4 µM
HDLM-2
  IC50: 17.2 µM
MOLT-4
  IC50: 10.6 µM
GCIY
  IC50: 10.1 µM
Calu-6
  IC50: 4.83 µM
ES5
  IC50: > 32 µM
EKVX
  IC50: > 32 µM
SK-PN-DW
  IC50: 30.6 µM
